From patent US20120171123A1, “USES AND COMPOSITIONS FOR TREATMENT OF RHEUMATOID ARTHRITIS” (priority 2006, published 2012)
Marks after values point to notes of the source that are not given here.

How the values were obtained:
[1] = system: patients with long-standing RA; experiment: Study I open-label extension: DAS28 and clinical remission; assay type: in vivo, human; conditions: for patients in clinical remission (DAS28<2.6) / mean change from baseline in DAS28: last visit
Procedure: 217 patients who completed the blinded period and participated in the extension trial for a minimum of 6 months were allowed to adjust MTX and/or corticosteroid dosages at the discretion of the principal investigators. Dose tapering was conducted according to standard medical practice with respect to controlling disease activity
Demographic data, age, gender, disease duration, rheumatoid factor and changes in TJC, SJC, CRP, DAS28, HAQ and ACR responses were analysed. Baseline demographics and disease characteristics as well as efficacy measures at last visit (ACR 20/50/70, DAS28, HAQ) were compared between the groups. All patients, including those who discontinued from the trial, were evaluated
Patients were eligible to enroll in Study I if they met ACR criteria for diagnosis of RA. […] Efficacy outcomes were assessed at pre-specified intervals as observed data. Treatment time was calculated beginning with the first subcutaneous injection of adalimumab at any dose, excluding time on placebo. Improvements in signs and symptoms of RA were evaluated for ACR20, ACR50, and ACR70 criteria, 28-joint count Disease Activity Score (DAS28) using the CRP-based formula, and Health Assessment Questionnaire (HAQ). Patients with changes in dosage of MTX or corticosteroids were evaluated for at least 6 months; these patients were eligible for the extension study for at least 6 months and were eligible for discretionary dose tapering. Patients were monitored for adverse events (AEs) during the entire length of the study, from signed informed consent through last visit.

[2] = system: patients with active rheumatoid arthritis; conditions: Study A (N=2008), 12 weeks; cited from earlier work
patients with active RA = experiment: Study A in France: AIMS2-SF quality of life; assay type: in vivo, human; conditions: for AIMS2-SF Work component score: working patients only
Text: Efficacy of a treatment for rheumatoid arthritis can be determined by comparing AIMS2-SF scores given by subjects having rheumatoid arthritis. The AIMS2-SF is a shorter version of the AIMS2 (i.e., available in 2-page format) and has psychometric properties similar to those of the AIMS2 (see Guillemin et al. (1997) Arthritis Rheum. 40(7):1267).
Unsatisfactory response or intolerance to at least one prior DMARD was required for enrollment in Study A. A 12-week study period was followed by an optional extension phase, with an efficacy assessment performed at Weeks 2, 6, 12, 20, and every eight weeks thereafter. Patients discontinued the study when they stopped receiving adalimumab or when […].
The HAQ and the Arthritis Impact Measurement Scale Short Form (AIMS2-SF) are both extensively validated health-related quality-of-life outcome measures in RA (Guillemin et al. Arth Rheum 1997; 40(7):1267-1274). Both measures have been proven useful in cohort studies and clinical trials (Guillemin et al). The HAQ and the AIMS2-SF are effective in detecting both long-term and short-term health status changes (Guillemin et al). In France, Study A patients completed the French AIMS2-SF, a tool that measures disease impact on physical function and overall quality-of-life in five components. Study A began in France began in December 2002. Completion of the AIMS2-SF at Study Entry Visit 1, Week 12, and Week 28 (if patient participated in the continuation period) was a component added in March 2003 as a France-specific amendment to the study protocol. Because AIMS2-SF was introduced later into the study, the number of French patients answering the AIMS2-SF is smaller than the overall French Study A population
A total of 266 patients out of 1,002 Study A patients in France completed the AIMS2-SF. AIMS2-SF responders recorded a significant improvement in quality-of-life.

[3] = system: patients with long-standing RA; experiment: Study 4: DAS28, clinical remission and sustained remission; assay type: in vivo, human
Text: DAS28 represents disease activity, taking into consideration the TJC 28, SJC 28, CRP, and patient general health (based on VAS of 100 mm) (see Prevoo et al. (1995) Arthritis Rheum 38:44-48 and Van Gestel et al. (1999) J Rheumatol 26:705-711, each of which is incorporated by reference herein). DAS28 scores greater than or equal to 5.1 represent severe activity disease activity, less than 5.1 to 3.2 indicate moderate disease activity, less than 3.2 to 2.6 indicate low disease activity, and scores below 2.6 represent remission. At the end of the fourth year, the median DAS28 score was 2.7 (low disease activity). […] The largest increase in percentage of patients in clinical remission was seen between months 0-6, where an increase in the percentage of patients in remission went from 0% at month 0 to about 27% at month 6.
The rates of sustained remission and time to remission were consistent across durations of the disease. Remission rates were defined as greater than or equal to 6 months by baseline disease duration. Rates of sustained remission and time to remission are described below in Table 16.
Remission rates were defined as greater than or equal to 6 months by baseline disease duration.
Efficacy outcomes were evaluated as observed data: DAS28; ACR 20/50/70; Tender Joint Count (TJC); Swollen Joint Count (SJC); and HAQ Disability Index. Baseline demographics and disease characteristics were similar in both Study 4 and Study 5 consistent with moderate to severe RA, as shown below in Table 64: […]

[4] = Baseline to Week 12, mean of individual patient differences

adalimumab: human anti-TNF mAb (HUMIRA, Abbott Laboratories), described in U.S. Pat. No. 6,090,382 as D2E7
patients with DAS28<2.6 ([1]; 5 years): 52% | patients in clinical remission (DAS28<2.6) ([1]; mtx and steroid decrease): 24% | mean change from baseline in DAS28 ([1]; mtx decrease): −2.7 | patients in clinical remission (DAS28<2.6) ([1]; mtx decrease): 7.2% | mean change from baseline in DAS28 ([1]; mtx increase): −1.7 | patients in clinical remission (DAS28<2.6) ([1]; mtx increase): 6.7% | mean change from baseline in DAS28 ([1]; mtx no change): −2.5 | patients in clinical remission (DAS28<2.6) ([1]; mtx no change): 15.5% | mean change from baseline in DAS28 ([1]; mtx+steroid decrease): −3.0 | mean change from baseline in DAS28 ([1]; steroid decrease): −2.9 | patients in clinical remission (DAS28<2.6) ([1]; steroid decrease): 21.6% | mean change from baseline in DAS28 ([1]; steroid no change): −2.5 | patients in clinical remission (DAS28<2.6) ([1]; steroid no change): 17.2% | DAS28 (mean), change from baseline [2]: −2.1 | AIMS2-SF Afect component score (patients with active RA; Baseline): 4.7 | AIMS2-SF Physical component score (patients with active RA; Baseline): 3.9 | AIMS2-SF Social component score (patients with active RA; Baseline): 5.3 | AIMS2-SF Symptom component score (patients with active RA; Baseline): 6.7 | AIMS2-SF Physical component, % Change (patients with active RA; [4]): −25.0^§ % | AIMS2-SF Social component, % Change (patients with active RA; [4]): 1.6% | AIMS2-SF Social component, Mean Change (patients with active RA; [4]): −0.1 | AIMS2-SF Symptom component, % Change (patients with active RA; [4]): −43.4^§ % | AIMS2-SF Symptom component, Mean Change (patients with active RA; [4]): −3.2^§ | AIMS2-SF Work component score (patients with active RA; Baseline): 4.2 | AIMS2-SF Work component score (patients with active RA; Week 12): 3.3 | AIMS2-SF Afect component score (patients with active RA; week 12): 3.6 | AIMS2-SF Physical component score (patients with active RA; week 12): 2.9 | AIMS2-SF Social component score (patients with active RA; week 12): 5.3 | AIMS2-SF Symptom component score (patients with active RA; week 12): 3.5 | DAS28, % change of mean clinical improvement from baseline ([3]; 6 months of exposure): 39% | DAS28, % change of mean clinical improvement from baseline ([3]; 12 months): 44% | DAS28, % change of mean clinical improvement from baseline ([3]; 24 months): 45% | DAS28, % change of mean clinical improvement from baseline ([3]; 36 months): 47% | DAS28, % change of mean clinical improvement from baseline ([3]; 48 months): 50% | patients in clinical remission (DAS28<2.6) ([3]; 48 months): 49% | patients achieving clinical remission (DAS28<2.6) ([3]; Year 5): Over 40% | Months in remission (mean) ([3]; baseline DAS28 < 5.1): 27 months | Months until remission (mean) ([3]; baseline DAS28 < 5.1): 8 months | patients with sustained remission (≧6 months) ([3]; baseline DAS28 < 5.1): (n = 105, 50%*) | Months in remission (mean) ([3]; baseline DAS28 ≧ 5.1): 23 months | Months until remission (mean) ([3]; baseline DAS28 ≧ 5.1): 11 months | patients with sustained remission (≧6 months) ([3]; baseline DAS28 ≧ 5.1): (n = 140, 22%**) | % of visits with ACR70 during remission ([3]; disease duration >2 years): 64% | % of visits with CRP <10 mg/L during remission ([3]; disease duration >2 years): 95% | % of visits with SJC = 0 during remission ([3]; disease duration >2 years): 54% | % of visits with TJC = 0 during remission ([3]; disease duration >2 years): 70% | Months in remission (mean) ([3]; disease duration >2 years): 25 months | Months until remission (mean) ([3]; disease duration >2 years): 10 months | patients with sustained remission (≧6 months) ([3]; disease duration at entry >2 years): (n = 209, 29%*) | patients with sustained remission (≧6 months) ([3]; disease duration at entry ≦2 years): (n = 36, 31%*) | % of visits with ACR70 during remission ([3]; disease duration ≦2 years): 71% | % of visits with CRP <10 mg/L during remission ([3]; disease duration ≦2 years): 94% | % of visits with SJC = 0 during remission ([3]; disease duration ≦2 years): 64% | % of visits with TJC = 0 during remission ([3]; disease duration ≦2 years): 77% | Months in remission (mean) ([3]; disease duration ≦2 years): 25 months | Months until remission (mean) ([3]; disease duration ≦2 years): 10 months | median DAS28 score ([3]; end of fourth year): 2.7 | patients in clinical remission (DAS28<2.6) ([3]; month 6): about 27%
